The structures appear in SMILES notation. In brackets after ≈: the same amount, converted by molar mass. Where two headings read alike, the source gives them in different places.

The results in this text go back to patent publication EP1137645B1, “ALPHA-METHYLBENZYL-CONTAINING THIOUREA INHIBITORS OF HERPES VIRUSES CONTAINING A […] GROUP” (Wyeth, priority 1998, dated 2000).

One assay concerns VZV strain Ellen. Kind of assay: VZV antiviral (ELISA) assay. It counts as cell-based. The following applies: for inhibition at 10 µg/mL: read-out: % inhibition 10 ug/ml VZV. Summed up:
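HFF cells infected with VZV Ellen at multiplicity below 0.1 overnight, then mixed infected/uninfected cells seeded with compound in DMEM/2% FBS and incubated three days at 37°C, 5% CO2.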
A general note: ELISA stands for enzyme-linked immunosorbent assay.

The subject of a further assay is HSV- I. Kind of assay: HSV antiviral (ELISA) assay. It counts as cell-based. The following applies: read-out: IC50 (ug/ml) HSV. Summed up:
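IC50 from fluorescence versus untreated control in a cell ELISA: anti-glycoprotein D antibody, β-galactosidase-conjugated secondary, 4-methyl umbelliferone read at 365/450 nm. Vero cells (2% FBS DMEM) received compound 30 min pre-infection with HSV-1 at MOI 0.006, fixed ~24 h post-infection.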

In assay [1] the test system is HCMV recombinant mutant virus whose genome contains the prokaryotic beta-glucuronidase gene. Kind of assay: microbe, parasite or virus in culture. It counts as cell-based, human cytomegalovirus. The following applies: Human betaherpesvirus 5, Fibroblast. Summed up: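 Antiviral IC50 estimated from reduced reporter activity across compound amounts: lysates prepared 96 h after infection were tested with p-nitrophenyl- or methylumbelliferyl-glucuronide. Cells were human foreskin fibroblasts, infected alongside inhibitor with HCMV (e.g. RV145) expressing viral promoter-driven beta-glucuronidase.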

The mark [2] stands for this setting: Human alphaherpesvirus 3, HFF, read-out: IC50 (ug/ml) VZV.
The mark [3] stands for this setting: read-out: IC50 ug/ml HCMV, HCMV, human foreskin fibroblasts.
Where [4] appears, read: Human alphaherpesvirus 3, HFF, read-out: IC50 (ug/ml) VZV, VZV strain Ellen, HFF cells, ELISA.
[5] abbreviates: Human alphaherpesvirus 3, VZV strain Ellen, HFF cells, ELISA, read-out: IC50 (ug/ml) VZV.

Turning to `CN1CCC(N(C)c2ccc(NC(=S)Nc3ccc(NC(=O)c4ccccc4F)cc3)cc2Cl)C1` (centres unmarked) [Example 332, N-[4-(3-{3-Chloro-4-[methyl-(1-methyl-pyrrolidin-3-yl)-amino]-phenyl}-thioureido)-phenyl]-2-fluoro-benzamide], the inhibition at 10 µg/mL with VZV strain Ellen (Human alphaherpesvirus 3, HFF) turned out to be 90%. Further, the IC50 with VZV strain Ellen (setting [2]) came to 8 µg/mL (≈ 15.6 µM); in the assay on HSV- I (HSV- I, Vero cells, ELISA) it was 1 µg/mL (≈ 1.95 µM); in assay [1] (setting [3]), 0.9 µg/mL (≈ 1.76 µM).
Turning to `CC(C)COc1ccc(NC(=S)Nc2ccc(NC(=O)c3ccccc3F)cc2)cc1Cl` [Example 994, N-{4-[3-(3-Chloro-4-isobutoxy-phenyl)-thioureido]-phenyl}-2-fluoro-benzamide], the IC50 (in the assay with VZV strain Ellen (setting [4]); with HSV- I (Vero); in assay [1] (setting [3])) was greater than 10 µg/mL each time.
With `CC(NC(=S)Nc1ccc(NC(=O)c2ccccc2F)cc1)c1ccc(F)cc1` (centres unmarked) [Example 591, 2-Fluoro-N-(4-{3-[1-(4-fluoro-phenyl)-ethyl]-thioureido}-phenyl)-benzamide], the IC50 in the assay on VZV strain Ellen (setting [5]) is 1.5 µg/mL (≈ 3.65 µM); in the assay on HSV- I (HSV- I, Vero cells, ELISA), greater than 10 µg/mL; in assay [1] (read-out: IC50 ug/ml HCMV), 7 µg/mL (≈ 17 µM).
Take `COc1cc(OC)c(NC(=S)Nc2ccc(NC(=O)c3cccc(F)c3)cc2)cc1Cl` [Example 117, N-{4-[3-(5-Chloro-2,4-dimethoxy-phenyl)-thioureido]-phenyl}-3-fluoro-benzamide]: the inhibition at 10 µg/mL in the assay with VZV strain Ellen (Human alphaherpesvirus 3, HFF) came to 15%. Also, the IC50 was greater than 10 µg/mL in the assay with VZV strain Ellen (setting [2]); 0.3 µg/mL (≈ 0.652 µM) in the assay with HSV- I (HSV- I, Vero cells, ELISA); 3 µg/mL (≈ 6.52 µM) in assay [1] (setting [3]).
Take `CN(C)c1cccc(NC(=S)Nc2ccc(NC(=O)c3ccccc3F)cc2)c1` [Example 454, N-{4-[3-(3-Dimethylamino-phenyl)-thioureido]-phenyl}-2-fluoro-benzamide]: in the assay with VZV strain Ellen (Human alphaherpesvirus 3, HFF), the inhibition at 10 µg/mL is 55%. Moreover, the IC50 with VZV strain Ellen (setting [2]) was greater than 10 µg/mL; in the assay with HSV- I (HSV- I, Vero cells, ELISA) it was 1.5 µg/mL (≈ 3.67 µM); in assay [1] (setting [3]), 4 µg/mL (≈ 9.79 µM).
On to `O=C(Nc1ccc(NC(=S)NC(Cc2ccccc2)c2ccc(F)cc2)cc1)c1ccccc1F` (centres unmarked) [Example 774, 2-Fluoro-N-(4-{3-[1-(4-fluoro-phenyl)-2-phenyl-ethyl]-thioureido}-phenyl)-benzamide], for which the results for the IC50 (in the assay with VZV strain Ellen (setting [4]); with HSV- I (Vero); in assay [1] (setting [3])) were greater than 7.5 µg/mL, greater than 10 µg/mL and 0.5 µg/mL (≈ 1.03 µM), respectively.
On to `CC(C)Oc1ccc(NC(=S)Nc2ccc(NC(=O)c3ccccc3F)cc2)cc1Cl` [Example 808, N-{4-[3-(3-Chloro-4-isopropoxy-phenyl)-thioureido]-phenyl}-2-fluoro-benzamide], for which the IC50 in the assay with VZV strain Ellen (setting [4]) is greater than 7.5 µg/mL; in the assay with HSV- I (Vero), greater than 10 µg/mL; in assay [1] (setting [3]) it was greater than 10 µg/mL.
In the case of `COc1cc(OC)c(NC(=S)Nc2ccc(NC(=O)c3ccccc3C(F)(F)F)cc2)cc1Cl` [Example 138, N-{4-[3-(5-Chloro-2,4-dimethoxy-phenyl)-thioureido]-phenyl}-2-trifluoro-methyl-benzamide], the inhibition at 10 µg/mL in the assay with VZV strain Ellen (Human alphaherpesvirus 3, HFF) was determined as 57%. Moreover, the IC50 in the assay with VZV strain Ellen (setting [2]) was greater than 10 µg/mL; in the assay with HSV- I (HSV- I, Vero cells, ELISA), 1 µg/mL (≈ 1.96 µM); in assay [1] (setting [3]), 8 µg/mL (≈ 15.7 µM).
Regarding `O=C(Nc1ccc(NC(=S)NC(CO)c2ccccc2)cc1)c1ccccc1F` (centres unmarked) [Example 797, 2-Fluoro-N-{4-[3-(2-hydroxy-1-phenyl-ethyl)-thioureido]-phenyl}-benzamide], the IC50 with VZV strain Ellen (setting [5]) is 1.7 µg/mL (≈ 4.15 µM); with HSV- I (HSV- I, Vero cells, ELISA), greater than 10 µg/mL; in assay [1] (read-out: IC50 ug/ml HCMV) it was greater than 10 µg/mL.
With `COc1cc(OC)c(NC(=S)Nc2ccc(NC(=O)c3ccccc3NS(C)(=O)=O)cc2)cc1Cl` [Example 191, N-{4-[3-(5-Chloro-2,4-dimethoxy-phenyl)-thioureido]-phenyl}-2-methane-sulfonylamino-benzamide], in the assay with VZV strain Ellen (Human alphaherpesvirus 3, HFF), the inhibition at 10 µg/mL was 22%. Moreover, the IC50 in the assay on VZV strain Ellen (setting [4]) was greater than 10 µg/mL; with HSV- I (Vero) it was 8 µg/mL (≈ 15 µM); in assay [1] (setting [3]), greater than 10 µg/mL.
